Values quoted from earlier work in patent US9322040B2, “Pseudonocardia sp. and method for preparing deoxynyboquinone by utilizing same” (SOUTH CHINA SEA INSTITUTE OF OCEANOLOGY, CHINESE ACADEMY OF …, priority 2011, dated 2016).

Test system: cancer cell

Structure (SMILES)	activity relative to Deoxynyboquinone (compared with the activity of Deoxynyboquinone) [times weaker]	cytotoxin activity	activity under anoxic conditions (anoxic conditions)
Cc1cc(=O)n(C)c2c1C(=O)c1c(C)cc(=O)n(C)c1C2=O [SCH 538415, reference compound]	10		
Cc1cc(=O)[nH]c2c1C(=O)c1c(C)cc(=O)n(C)c1C2=O [Deoxynyboquinone]		significant cytotoxin activity	stronger activity can be still shown under anoxic conditions
